The target of one test is T1, Hexokinase-4 (Homo sapiens) (UniProt P35557).
T1 sequence (whole entry): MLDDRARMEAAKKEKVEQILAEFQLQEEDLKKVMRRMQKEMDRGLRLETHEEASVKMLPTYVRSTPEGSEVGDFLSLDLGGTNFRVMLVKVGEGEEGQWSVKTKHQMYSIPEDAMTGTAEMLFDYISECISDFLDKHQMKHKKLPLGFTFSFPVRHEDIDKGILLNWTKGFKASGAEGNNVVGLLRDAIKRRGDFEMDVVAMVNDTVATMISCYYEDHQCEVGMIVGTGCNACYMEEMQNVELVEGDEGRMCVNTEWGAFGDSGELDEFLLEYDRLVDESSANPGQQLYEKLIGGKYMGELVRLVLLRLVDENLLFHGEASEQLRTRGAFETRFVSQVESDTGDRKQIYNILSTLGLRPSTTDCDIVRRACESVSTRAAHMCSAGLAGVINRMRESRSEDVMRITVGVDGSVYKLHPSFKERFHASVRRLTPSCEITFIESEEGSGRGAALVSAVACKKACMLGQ
The test is described as follows: Activation of human recombinant glucokinase expressed in Escherichia coli coexpressing G6PDH at 10 uM using 20 mM glucose by G6PDH coupled continuous spectrophotometric assay relative to Ro-28-1675.
As for `Cc1cc(C(=O)Nc2nc3c(s2)CCC3)c(C)s1`, the Activity was determined as 20%.
As to `Cc1cc(C(=O)Nc2nc3c(s2)CCC3)c(C)o1`, the Activity is 20%.
For the compound `CC(=O)c1ccccc1-c1cc(C(=O)Nc2nc3c(s2)CCC3)c(C)s1`, the Activity is 63%.
Turning to `CCc1sc(-c2ccccc2C(N)=O)cc1C(=O)Nc1nc2c(s1)CCC2`, the Activity turned out to be 69%.

A further test has as its target T1, Hexokinase-4 (Homo sapiens). The test is described as follows: Activation of human recombinant glucokinase expressed in Escherichia coli coexpressing G6PDH at 10 uM using 5 mM glucose by G6PDH coupled continuous spectrophotometric assay relative to Ro-28-1675.
Consider `Cc1cc(C(=O)Nc2nc3c(s2)CCC3)c(C)s1`, for which the Activity amounted to 20%.
Consider `Cc1cc(C(=O)Nc2nc3c(s2)CCC3)c(C)o1`, for which the Activity is 20%.
The same measure, in the same setting: next, `CC(=O)c1ccccc1-c1cc(C(=O)Nc2nc3c(s2)CCC3)c(C)s1`: 66%.
As for `Cc1sc(-c2ccccc2C(N)=O)cc1C(=O)Nc1nc2c(s1)CCC2`, the Activity came to 69%.
On to `CCc1sc(-c2ccccc2C(N)=O)cc1C(=O)Nc1nc2c(s1)CCC2`, for which the Activity stood at 69%.

Another test has the same target. The test is described as follows: Activation of human recombinant glucokinase expressed in Escherichia coli coexpressing G6PDH at 10 uM using 20 mM glucose measured as ratio of enzyme activation in compound treated to Ro-28-1675 by G6PDH coupled continuous spectrophotometric assay.
For the compound `Cc1cc(C(=O)Nc2nc3c(s2)CCC3)c(C)s1`, the Ratio came out at 0.231.
In the case of `Cc1cc(C(=O)Nc2nc3c(s2)CCC3)c(C)o1`, the Ratio was 0.247.
Same read-out and setting: the result for `CC(=O)c1ccccc1-c1cc(C(=O)Nc2nc3c(s2)CCC3)c(C)s1` reads 0.627.
On to `O=C(Nc1nc2c(s1)CCCC2)C1CCCO1` (stereo unspecified), for which the Ratio came to 0.014.
Regarding `Cc1cc(C(=O)Nc2nc3c(s2)CCCC3)c(C)s1`, the Ratio was found to be 0.038.
Same read-out and setting: next, `Cc1noc(C)c1C(=O)Nc1nc2c(s1)CCCC2`: -0.025; `CCc1oc(-c2ccccc2C(N)=O)cc1C(=O)Nc1nc2c(s1)CCC2`: 0.509.
In the case of `Cc1cc(C(=O)Nc2nc3c(s2)CCCC3)c(C)o1`, the Ratio stood at 0.072.
Same read-out and setting: the result for `COC(=O)c1ccc(NC(=O)c2cc(C)oc2C)nc1` reads 0.114.
For `Cc1oc(-c2cccc(C#N)c2)cc1C(=O)Nc1nc2c(s1)CCC2`, the Ratio is -0.09.
For `Cc1csc(NC(=O)c2cc(C)oc2C)n1`, the Ratio was determined as 0.1.
In the case of `CC(=O)c1ccccc1-c1cc(C(=O)Nc2nc3c(s2)CCC3)co1`, the Ratio was found to be 0.275.
Same read-out and setting: the result for `Cc1oc(-c2ccccn2)cc1C(=O)Nc1nc2c(s1)CCC2` reads 0.057; that for `Cc1oc(-c2ccccc2)cc1C(=O)Nc1nc2c(s1)CCCC2`, -0.062; that for `COCc1cc(C(=O)Nc2nc3c(s2)CCC3)c(C)o1`, 0.246.
As for `Cc1sc(-c2ccccc2C(N)=O)cc1C(=O)Nc1nc2c(s1)CCC2`, the Ratio came out at 0.713.
Turning to `CCc1oc(-c2ccccc2S(C)(=O)=O)cc1C(=O)Nc1nc2c(s1)CCC2`, the Ratio stood at 0.343.
Same read-out and setting: the result for `CCc1sc(-c2ccccc2C(N)=O)cc1C(=O)Nc1nc2c(s1)CCC2` reads 0.736.

The target is the same in another test. In words: Activation of human recombinant glucokinase expressed in Escherichia coli coexpressing G6PDH at 10 uM using 20 mM glucose measured as ratio of enzyme activation in treated to untreated control by G6PDH coupled continuous spectrophotometric assay.
On to `Cc1cc(C(=O)Nc2nc3c(s2)CCC3)c(C)s1`, for which the Ratio was found to be 1.37.
In the case of `Cc1cc(C(=O)Nc2nc3c(s2)CCC3)c(C)o1`, the Ratio was 1.42.
On the same count and under the same terms, the result for `CC(=O)c1ccccc1-c1cc(C(=O)Nc2nc3c(s2)CCC3)c(C)s1` reads 1.71; that for `O=C(Nc1nc2c(s1)CCCC2)C1CCCO1` (stereo unspecified), 1.03; that for `Cc1cc(C(=O)Nc2nc3c(s2)CCCC3)c(C)s1`, 1.06.
On the same count and under the same terms, the result for `Cc1noc(C)c1C(=O)Nc1nc2c(s1)CCCC2` reads 0.96.
On the same count and under the same terms, the result for `CCc1oc(-c2ccccc2C(N)=O)cc1C(=O)Nc1nc2c(s1)CCC2` reads 1.61; that for `Cc1cc(C(=O)Nc2nc3c(s2)CCCC3)c(C)o1`, 1.14.
As to `COC(=O)c1ccc(NC(=O)c2cc(C)oc2C)nc1`, the Ratio amounted to 1.19.
As for `Cc1oc(-c2cccc(C#N)c2)cc1C(=O)Nc1nc2c(s1)CCC2`, the Ratio amounted to 0.85.
On the same count and under the same terms, the result for `Cc1csc(NC(=O)c2cc(C)oc2C)n1` reads 1.15; that for `CC(=O)c1ccccc1-c1cc(C(=O)Nc2nc3c(s2)CCC3)co1`, 1.42; that for `Cc1oc(-c2ccccn2)cc1C(=O)Nc1nc2c(s1)CCC2`, 1.1.
Same read-out and setting: the result for `Cc1oc(-c2ccccc2)cc1C(=O)Nc1nc2c(s1)CCCC2` reads 0.89.
Still for that read-out and setting: next, `COCc1cc(C(=O)Nc2nc3c(s2)CCC3)c(C)o1`: 1.41.
Consider `Cc1sc(-c2ccccc2C(N)=O)cc1C(=O)Nc1nc2c(s1)CCC2`, for which the Ratio came to 1.8.
The same measure, in the same setting: the result for `CCc1oc(-c2ccccc2S(C)(=O)=O)cc1C(=O)Nc1nc2c(s1)CCC2` reads 1.39; that for `CCc1sc(-c2ccccc2C(N)=O)cc1C(=O)Nc1nc2c(s1)CCC2`, 1.92.

For a further test the target is unchanged. The test is described as follows: Activation of human recombinant glucokinase expressed in Escherichia coli coexpressing G6PDH at 10 uM using 5 mM glucose measured as ratio of enzyme activation in treated to untreated control by G6PDH coupled continuous spectrophotometric assay.
Take `Cc1cc(C(=O)Nc2nc3c(s2)CCC3)c(C)s1`: the Ratio is 2.22.
Take `Cc1cc(C(=O)Nc2nc3c(s2)CCC3)c(C)o1`: the Ratio is 1.88.
In the case of `CC(=O)c1ccccc1-c1cc(C(=O)Nc2nc3c(s2)CCC3)c(C)s1`, the Ratio is 3.52.
Same read-out and setting: the result for `O=C(Nc1nc2c(s1)CCCC2)C1CCCO1` (stereo unspecified) reads 1.06.
Same read-out and setting: next, `Cc1cc(C(=O)Nc2nc3c(s2)CCCC3)c(C)s1`: 2.12; `Cc1noc(C)c1C(=O)Nc1nc2c(s1)CCCC2`: 1.01; `CCc1oc(-c2ccccc2C(N)=O)cc1C(=O)Nc1nc2c(s1)CCC2`: 2.61.
Still for that read-out and setting: next, `Cc1cc(C(=O)Nc2nc3c(s2)CCCC3)c(C)o1`: 1.99; `COC(=O)c1ccc(NC(=O)c2cc(C)oc2C)nc1`: 1.33.
Regarding `Cc1oc(-c2cccc(C#N)c2)cc1C(=O)Nc1nc2c(s1)CCC2`, the Ratio is 0.99.
On the same count and under the same terms, next, `Cc1csc(NC(=O)c2cc(C)oc2C)n1`: 1.24; `CC(=O)c1ccccc1-c1cc(C(=O)Nc2nc3c(s2)CCC3)co1`: 1.77; `Cc1oc(-c2ccccn2)cc1C(=O)Nc1nc2c(s1)CCC2`: 1.18.
For `Cc1oc(-c2ccccc2)cc1C(=O)Nc1nc2c(s1)CCCC2`, the Ratio stood at 0.99.
As to `COCc1cc(C(=O)Nc2nc3c(s2)CCC3)c(C)o1`, the Ratio is 1.92.
With `Cc1sc(-c2ccccc2C(N)=O)cc1C(=O)Nc1nc2c(s1)CCC2`, the Ratio was 3.34.
The same measure, in the same setting: the result for `CCc1oc(-c2ccccc2S(C)(=O)=O)cc1C(=O)Nc1nc2c(s1)CCC2` reads 2.92; that for `CCc1sc(-c2ccccc2C(N)=O)cc1C(=O)Nc1nc2c(s1)CCC2`, 3.7.

A further test has the same target. The test is described as follows: Activation of human recombinant glucokinase expressed in Escherichia coli coexpressing G6PDH at 10 uM using 5 mM glucose measured as ratio of enzyme activation in compound treated to Ro-28-1675 by G6PDH coupled continuous spectrophotometric assay.
With `Cc1cc(C(=O)Nc2nc3c(s2)CCC3)c(C)s1`, the Ratio worked out at 0.312.
With `Cc1cc(C(=O)Nc2nc3c(s2)CCC3)c(C)o1`, the Ratio was 0.219.
On the same count and under the same terms, the result for `CC(=O)c1ccccc1-c1cc(C(=O)Nc2nc3c(s2)CCC3)c(C)s1` reads 0.66.
On the same count and under the same terms, the result for `O=C(Nc1nc2c(s1)CCCC2)C1CCCO1` (stereo unspecified) reads 0.008; that for `Cc1cc(C(=O)Nc2nc3c(s2)CCCC3)c(C)s1`, 0.287.
`Cc1noc(C)c1C(=O)Nc1nc2c(s1)CCCC2`: the Ratio came to 0.004.
For the compound `CCc1oc(-c2ccccc2C(N)=O)cc1C(=O)Nc1nc2c(s1)CCC2`, the Ratio was determined as 0.453.
Same read-out and setting: the result for `Cc1cc(C(=O)Nc2nc3c(s2)CCCC3)c(C)o1` reads 0.215; that for `COC(=O)c1ccc(NC(=O)c2cc(C)oc2C)nc1`, 0.076; that for `Cc1oc(-c2cccc(C#N)c2)cc1C(=O)Nc1nc2c(s1)CCC2`, -0.002.
Turning to `Cc1csc(NC(=O)c2cc(C)oc2C)n1`, the Ratio came to 0.068.
For the compound `CC(=O)c1ccccc1-c1cc(C(=O)Nc2nc3c(s2)CCC3)co1`, the Ratio stood at 0.207.
As for `Cc1oc(-c2ccccn2)cc1C(=O)Nc1nc2c(s1)CCC2`, the Ratio worked out at 0.048.
`Cc1oc(-c2ccccc2)cc1C(=O)Nc1nc2c(s1)CCCC2`: the Ratio was -0.002.
On the same count and under the same terms, the result for `COCc1cc(C(=O)Nc2nc3c(s2)CCC3)c(C)o1` reads 0.212.
Consider `Cc1sc(-c2ccccc2C(N)=O)cc1C(=O)Nc1nc2c(s1)CCC2`, for which the Ratio came to 0.714.
Same read-out and setting: the result for `CCc1oc(-c2ccccc2S(C)(=O)=O)cc1C(=O)Nc1nc2c(s1)CCC2` reads 0.586.
On the same count and under the same terms, next, `CCc1sc(-c2ccccc2C(N)=O)cc1C(=O)Nc1nc2c(s1)CCC2`: 0.69.

The record behind these values is ChEMBL document CHEMBL1821720, “Discovery and hit-to-lead optimization of novel allosteric glucokinase activators” (Bioorg Med Chem Lett, 2011).
